The record followed here is US8466089B2, “Pyrazole compounds, process for their production and herbicides containing them” (Ishihara Sangyo Kaisha, Ltd., priority 2008, dated 2013).

What all share (assay type): in vivo
Series [1] has as its system corn (Zea mays L.). As to the kind of experiment: Test Example 4, foliar treatment, safety to crop plants versus Reference Compounds. Particulars: 3.5 to 15 g/ha, 14th to 28th day after application, test written in present tense. The text has this:
Upland field soil is put into a 1/1,000,000 hectare pot, and seeds of various plants are sown. When the respective plants reach predetermined leaf stage ((1) velvetleaf (Abutilon theophrasti MEDIC.), (2) guineagrass (Panicum maximum Jacq.), (3) green foxtail (Setaria viridis L.), and (4) corn (Zea mays L.), a wettable powder of compound No. 2-1 of the above-mentioned present invention, an emulsifiable concentrate of the following Reference Compound 1 and a wettable powder of the following Reference Compound 2, prepared in accordance with a conventional preparation method, are weighed so that the active ingredients become the prescribed amounts 3.5 to 15 g/ha, and diluted with water in an amount corresponding to 300 liter per 1 hectare (containing 0.5 vol % of an agricultural spreader (MSO concentrate, manufactured by Cognis Corporation). The spray solutions thus prepared are applied for foliar treatment by a small sprayer.

Series [2] concerns corn (Zea mays L.). Kind of series: Test Example 5, foliar treatment versus Reference Compounds. Particulars: 4.0 to 4.3 leaf stage, 7th day after application, read-out: Growth inhibition rate (%) (7th day after application) Corn. The text has this: (§1) Upland field soil was put into a 1/1,000,000 hectare pot, and seeds of various plants were sown. When the respective plants reached predetermined leaf stage ((1) velvetleaf (Abutilon theophrasti MEDIC.): 3.0 to 3.5 leaf stage, (2) giant foxtail (Setaria faberi Herrm.): 4.0 to 4.5 leaf stage, (3) green foxtail (Setaria viridis L.): 5.0 to 5.5 leaf stage, and (4) corn (Zea mays L.): 4.0 to 4.3 leaf stage, a wettable powder of compound No. 2-1 of the above-mentioned present invention, a wettable powder of the above-mentioned Reference Compound 1 and a wettable powder of the above-mentioned Reference Compound 2, prepared in accordance with a conventional preparation method, were weighed so that the active ingredients became the prescribed amounts, and diluted with water in an amount corresponding to 300 liter per 1 hectare (containing 0.5 vol % of an agricultural spreader (Destiny HC: WINFIELD SOLUTIONS by LLC). The spray solutions thus prepared were applied for foliar treatment by a small sprayer.
(§2) On the 7th to 20th day after application, the state of growth of the respective plants was visually observed, and the herbicidal effect was evaluated by a growth inhibition rate (%) of 0 (equivalent to the non-treated area) to 100% (complete kill).

The subject of series [3] is giant foxtail (Setaria faberi Herrm.). Described as above. Particulars: 4.0 to 4.5 leaf stage, 20th day after application, read-out: Growth inhibition rate (%) (20th day after application) Giant foxtail.
Source text: as §1, §2

The subject of series [4] is velvetleaf (Abutilon theophrasti MEDIC.). The series is described as above. The conditions noted are these: 3.0 to 3.5 leaf stage, 20th day after application, read-out: Growth inhibition rate (%) (20th day after application) Velvet leaf.
Source text: as §1, §2

Series [5] concerns sorgo (Sorghum bicolor Moench) (var.: Lucky Sorgo). As to the kind of experiment: Test Example 6, soil column downward movement, sorgo bioassay. Particulars: 14th day after sowing. The protocol: Soil (sterilized soil:sand=3:1) was packed (4 L) into a column (9.5 cm in diameter×40 cm in height, application area: 0.007 m^2), and tap water was dropped from above by a Peristaltic pump before application of the herbicide for the purpose of maintaining the soil moisture to be uniform. Then, 10 mL of a spray solution prepared so that each agent (Compound No. 2-1, the above Reference Compounds 1 and 2) would be at a concentration corresponding to 250 g/ha was dropwise applied by a pipette. After application, water was dropped again at a rate of 400 mL/hr for about 3 hours by means of a Peristaltic pump. After the dropping, the column was left to stand for 1 day, and then the column was vertically evenly divided and seeds of sorgo (Sorghum bicolor Moench) (var.: Lucky Sorgo) were sown in a row. On the 14th day after sowing, the state of growth of the plant was visually observed at 3 cm intervals from the application point of the agent, whereby the germination and the degree of growth were evaluated by a growth inhibition rate (%) of 0 (equivalent to the non-treated area) to 100% (complete kill) to obtain the results in Table 17.
From the above results, the growth inhibition rates of Reference Compounds No. 1 and No. 2 are observed in depths deeper than that of Compound No. 2-1. […] Whereas, Compound No. 2-1 stayed at a shallow portion of soil (in a layer of from 0 to 9 cm).

Read-outs that look alike come from different tables or passages of the source.

On to `CCn1ncc(C(=O)c2ccc(S(C)(=O)=O)c(OCCOC)c2C)c1OC(C)OC(=O)OC` (centres unmarked) [Compound No. 2-1, 1-(1-Ethyl-4-(3-(2-methoxyethoxy)-2-methyl-4-(methylsulfonyl)benzoyl)-1H-pyrazol-5-yloxy)ethyl methyl carbonate], for which the “safety to crop plants as compared to Reference Compounds” value in the series on corn (Zea mays L.) [1] was “excellent safety to crop plants”. Besides, the inhibition at 90 g/ha with corn (Zea mays L.) [2] turned out to be 0%. Moreover, the inhibition at 3.5 g/ha was 83% in series [3] and 80% in series [4]. In addition, the inhibition at 250 g/ha in series [5] (depth 0-3 cm, read-out: Growth inhibition rate (%) against sorgo, Depth (cm) from the applied surface 0-3) worked out at 70%; in series [5] (depth 3-6 cm, read-out: Growth inhibition rate (%) against sorgo, Depth (cm) from the applied surface 3-6), 19%; in series [5] (depth 6-9 cm, read-out: Growth inhibition rate (%) against sorgo, Depth (cm) from the applied surface 6-9), 10%; in series [5] (depth 9-12 cm, read-out: Growth inhibition rate (%) against sorgo, Depth (cm) from the applied surface 9-12) it was 5%; in series [5] (depth 12-15 cm, read-out: Growth inhibition rate (%) against sorgo, Depth (cm) from the applied surface 12-15) it was 3%; in series [5] (depth 15-18 cm, read-out: Growth inhibition rate (%) against sorgo, Depth (cm) from the applied surface 15-18) it was 3%. Further, the inhibition at 250 g/ha was found to be 2% in series [5] (depth 18-21 cm, read-out: Growth inhibition rate (%) against sorgo, Depth (cm) from the applied surface 18-21); 1% in series [5] (depth 21-24 cm, read-out: Growth inhibition rate (%) against sorgo, Depth (cm) from the applied surface 21-24); 0% in series [5] (depth 24-27 cm, read-out: Growth inhibition rate (%) against sorgo, Depth (cm) from the applied surface 24-27); 0% in series [5] (depth 27-30 cm, read-out: Growth inhibition rate (%) against sorgo, Depth (cm) from the applied surface 27-30).

By inhibition is commonly meant the share of the control response that was lost under treatment.
